Results published in US6586434B2, “Method for the preparation of tetrahydrobenzothiepines” (G.D. Searle, LLC, priority 2000, dated 2003).

Assay: Water uptake experiments (Dynamic Vapor Sorption, water sorption/desorption isotherms)
Format: physicochemical
Conditions: for Desorptoin % Weight Change: reverse stepwise RH decrease; for Sorption % Weight Change: stepwise RH increase
Description: Water sorption experiments are performed on a Dynamic Vapor Sorption (DVS) apparatus (DVS-1000 manufactured by Surface Measurements Systems, Inc.). Experiments are performed at 25° C. by initially drying the material of interest (about 10 mg sample) from 30% relative humidity (RH) (ambient room condition) to about 9% RH in a stepwise fashion (10% RH step) by purging with dry nitrogen until no further weight change was observed. The samples are then exposed to a stepwise (10% RH steps) increase in RH from about 0 to about 90% RH. Each successive step is initiated when the change in weight over time at the relative humidity was less than 0.0003% ((dm/dt)/m0×100, where m is mass in mg, m0 is initial mass, and t is time in minutes). The sample is then taken through the reverse of the stepwise % RH increase. The data are collected on a computer and analyzed using SMS' proprietary MS-Excel macro interface software.

Structure (SMILES): CCCCC1(CCCC)CS(=O)(=O)c2ccc(N(C)C)cc2[C@@H](c2ccc(OCc3ccc(C[N+]45CCN(CC4)CC5)cc3)cc2)[C@H]1O.[Cl-] [Form I, (4R,5R)-1-((4-(4-(3,3-dibutyl-7-(dimethylamino)-2,3,4,5-tetrahydro-4-hydroxy-1,1-dioxido-1-benzithiepin-5-yl)phenoxy)methyl)phenyl)methyl-4-aza-1-azoniabicyclo[2.2.2]octane chloride]
- Desorptoin % Weight Change (0.45 % RH at 25° C.): 0.057%
- Sorption % Weight Change (0.45 % RH at 25° C.): 0.057%
- Desorptoin % Weight Change (9.2 % RH at 25° C.): 0.997%
- Sorption % Weight Change (9.2 % RH at 25° C.): 0.9575%
- Desorptoin % Weight Change (20.05 % RH at 25° C.): 2.1025%
- Sorption % Weight Change (20.05 % RH at 25° C.): 2.016%
- Desorptoin % Weight Change (29.75 % RH at 25° C.): 3.599%
- Sorption % Weight Change (29.75 % RH at 25° C.): 3.4105%
- Desorptoin % Weight Change (39.4 % RH at 25° C.): 4.743%
- Sorption % Weight Change (39.4 % RH at 25° C.): 4.282%
- Desorptoin % Weight Change (49.55 % RH at 25° C.): 5.321%
- Sorption % Weight Change (49.55 % RH at 25° C.): 4.928%
- Desorptoin % Weight Change (59.4 % RH at 25° C.): 5.726%
- Sorption % Weight Change (59.4 % RH at 25° C.): 5.356%
- Desorptoin % Weight Change (69.05 % RH at 25° C.): 6.054%
- Sorption % Weight Change (69.05 % RH at 25° C.): 5.706%
- Desorptoin % Weight Change (78.8 % RH at 25° C.): 6.357%
- Sorption % Weight Change (78.8 % RH at 25° C.): 6.109%
- Desorptoin % Weight Change (88.5 % RH at 25° C.): 6.734%
- Sorption % Weight Change (88.5 % RH at 25° C.): 6.734%

Structure (SMILES): CCCCC1(CCCC)CS(=O)(=O)c2ccc(N(C)C)cc2[C@@H](c2ccc(OCc3ccc(C[N+]45CCN(CC4)CC5)cc3)cc2)[C@H]1O.[Cl-] [Form II, (4R,5R)-1-((4-(4-(3,3-dibutyl-7-(dimethylamino)-2,3,4,5-tetrahydro-4-hydroxy-1,1-dioxido-1-benzithiepin-5-yl)phenoxy)methyl)phenyl)methyl-4-aza-1-azoniabicyclo[2.2.2]octane chloride]
- Desorptoin % Weight Change (1.3 % RH at 25° C.): −0.02695%
- Sorption % Weight Change (1.3 % RH at 25° C.): −0.02695%
- Desorptoin % Weight Change (9.35 % RH at 25° C.): 0.04235%
- Sorption % Weight Change (9.35 % RH at 25° C.): 0.04715%
- Desorptoin % Weight Change (20.25 % RH at 25° C.): 0.09715%
- Sorption % Weight Change (20.25 % RH at 25° C.): 0.1058%
- Desorptoin % Weight Change (29.75 % RH at 25° C.): 0.1444%
- Sorption % Weight Change (29.75 % RH at 25° C.): 0.1376%
- Desorptoin % Weight Change (39.55 % RH at 25° C.): 0.1866%
- Sorption % Weight Change (39.55 % RH at 25° C.): 0.1809%
- Desorptoin % Weight Change (49.7 % RH at 25° C.): 0.2636%
- Sorption % Weight Change (49.7 % RH at 25° C.): 0.2386%
- Desorptoin % Weight Change (59.5 % RH at 25° C.): 0.331%
- Sorption % Weight Change (59.5 % RH at 25° C.): 0.304%
- Desorptoin % Weight Change (69.1 % RH at 25° C.): 0.3983%
- Sorption % Weight Change (69.1 % RH at 25° C.): 0.3945%
- Desorptoin % Weight Change (78.65 % RH at 25° C.): 0.4849%
- Sorption % Weight Change (78.65 % RH at 25° C.): 0.4695%
- Desorptoin % Weight Change (88.5 % RH at 25° C.): 0.6446%
- Sorption % Weight Change (88.5 % RH at 25° C.): 0.6446%
- weight gain of dry sample (of its own weight) when equilibrated under humid air (dry sample equilibrated under 80% relative humidity (RH) air at 25° C.): less than 1%
- hygroscopicity (dry sample, 80% RH air at 25° C.): essentially nonhygroscopic
